Assay results from patent US8476265B2, “Compounds-801” (AstraZeneca AB, priority 2010, dated 2013).
Counter-ions that a name gives are not always drawn.

Experiments:
Adrenergic β2 = target: T1, Adrenergic β2 (Homo sapiens, UniProt P07550); experiment: Adrenergic β2 mediated cAMP production in H292 cells (AlphaScreen), concentration response; type: cell-based; conditions: for EC50: 60 min, 300 μM rolipram, read-out: β2 pEC50 (converted); for β2 Intrinsic Activity: fraction relative to the maximum activity determined for formoterol
T1 construct: Adherent H292 cells are removed from tissue culture flasks by treatment with Accutase™ cell detachment solution; endogenous in cells; host or cells: H292 cells
T1 sequence (P07550 whole entry): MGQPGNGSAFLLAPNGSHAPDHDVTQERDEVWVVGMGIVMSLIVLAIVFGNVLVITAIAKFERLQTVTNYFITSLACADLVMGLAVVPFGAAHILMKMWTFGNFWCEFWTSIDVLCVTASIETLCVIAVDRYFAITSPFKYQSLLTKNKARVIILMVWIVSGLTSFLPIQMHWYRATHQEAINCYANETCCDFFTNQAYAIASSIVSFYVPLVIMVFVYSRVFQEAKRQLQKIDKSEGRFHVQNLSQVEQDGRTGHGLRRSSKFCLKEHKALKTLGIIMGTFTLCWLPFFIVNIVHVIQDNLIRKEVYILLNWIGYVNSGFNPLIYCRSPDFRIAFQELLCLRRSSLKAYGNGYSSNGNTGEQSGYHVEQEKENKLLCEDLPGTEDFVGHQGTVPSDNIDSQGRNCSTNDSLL
Summary of the method: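 H292 cells seeded overnight, pretreated 10 min with rolipram (300 μM final), then exposed to compounds 60 min at room temperature in HBSS/10 mM HEPES pH 7.4/5 mM glucose, 1% DMSO. Lysate cAMP quantified by AlphaScreen against a standard curve; four-parameter fit gives pEC50 and intrinsic activity relative to formoterol maximum.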

[1] = target: T2, human muscarinic acetylcholine M3 receptor (Homo sapiens, UniProt P20309); experiment: Muscarinic 3 receptor binding assay ([3H]NMS competition, SPA), pIC50; conditions: [3H]NMS 0.1 nM, CHO-K1 cell membranes expressing human M3 receptor
T2 construct: expressed in transfected cells; host or cells: CHO-K1 (Chinese Hamster Ovary) cell membranes
T2 sequence (P20309 whole entry): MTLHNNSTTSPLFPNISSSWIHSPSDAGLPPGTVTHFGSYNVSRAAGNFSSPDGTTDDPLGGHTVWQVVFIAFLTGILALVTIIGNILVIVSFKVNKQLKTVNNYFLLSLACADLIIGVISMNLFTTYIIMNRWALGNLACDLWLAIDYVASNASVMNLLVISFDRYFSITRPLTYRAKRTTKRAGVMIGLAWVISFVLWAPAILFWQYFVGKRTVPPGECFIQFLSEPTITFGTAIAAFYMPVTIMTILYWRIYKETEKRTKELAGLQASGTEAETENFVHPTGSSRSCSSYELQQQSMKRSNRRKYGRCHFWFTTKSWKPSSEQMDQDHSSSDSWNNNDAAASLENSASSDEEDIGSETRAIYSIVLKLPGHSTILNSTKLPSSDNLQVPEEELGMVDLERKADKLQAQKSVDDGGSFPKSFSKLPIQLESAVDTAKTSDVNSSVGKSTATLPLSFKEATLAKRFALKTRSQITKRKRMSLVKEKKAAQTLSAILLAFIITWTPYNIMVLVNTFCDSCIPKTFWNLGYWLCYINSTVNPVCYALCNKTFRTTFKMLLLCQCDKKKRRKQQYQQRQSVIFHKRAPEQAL
Summary of the method: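 Competition of [3H]NMS (0.1 nM, quarter Kd) binding to CHO-K1 membranes expressing human M3, SPA format, in 20 mM HEPES pH 7.4, 5 mM MgCl2, 0.1% BSA, 1% DMSO. Incubated 16 h at room temperature; non-specific binding with 1 μM atropine; pIC50 from specific binding.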

| Structure (SMILES) | EC50 (Adrenergic β2) [nM] | β2 Intrinsic Activity (Adrenergic β2) | IC50 [1] [nM] |
| --- | --- | --- | --- |
| CCCCN(CCNCCc1ccc(O)c2c1OCC(=O)N2)C(=O)CCOCCc1ccccc1OCCN1CCC2(CC1)CN(C(=O)c1csc(C(C)C)n1)CCO2 [Example 178, N-butyl-N-(2-(2-(5-hydroxy-3-oxo-3,4-dihydro-2H-benzo[b][1,4]oxazin-8-yl)ethylamino)ethyl)-3-(2-(2-(4-(2-isopropylthiazole-4-carbonyl)-1-oxa-4,9-diazaspiro[5.5]undecan-9-yl)ethoxy)phenethoxy)propanamide trifluoroacetate salt] | 501 | 1.2 | 12.6 |
| CC(C)c1csc(C(=O)N2CCOC3(CCN(Cc4cccc(CCOCCC(=O)N(CCNCCc5ccc(O)c6c5OCC(=O)N6)C5CCCCC5)c4)CC3)C2)c1 [Example 98, N-Cyclohexyl-N-(2-(2-(5-hydroxy-3-oxo-3,4-dihydro-2H-benzo[b][1,4]oxazin-8-yl)ethylamino)ethyl)-3-(3-((4-(4-isopropylthiophene-2-carbonyl)-1-oxa-4,9-diazaspiro[5.5]undecan-9-yl)methyl)phenethoxy)propanamide] | 200 | 1.1 | 0.794 |
| CC(C)c1nc(C(=O)N2CCOC3(CN(CCc4cccc(CCOCCC(=O)N(CCNCCc5ccc(O)c6c5OCC(=O)N6)C5CCCCC5)c4)C3)C2)cs1 [Example 176, N-Cyclohexyl-N-(2-(2-(5-hydroxy-3-oxo-3,4-dihydro-2H-benzo[b][1,4]oxazin-8-yl)ethylamino)ethyl)-3-(3-(2-(8-(2-isopropylthiazole-4-carbonyl)-5-oxa-2,8-diazaspiro[3.5]nonan-2-yl)ethyl)phenethoxy)propanamide, trifluoroacetate salt] | 15.8 | 1.2 | 2.51 |
| CC(C)c1nc(C(=O)N2CCOC3(CCN(Cc4cccc(CCOCCC(=O)N(CCNCCc5ccc(O)c6c5OCC(=O)N6)[C@H](C)c5ccccc5)c4F)CC3)C2)cs1 [Example 14, (R)-3-(2-Fluoro-3-((4-(2-isopropylthiazole-4-carbonyl)-1-oxa-4,9-diazaspiro[5.5]undecan-9-yl)methyl)phenethoxy)-N-(2-(2-(5-hydroxy-3-oxo-3,4-dihydro-2H-benzo[b][1,4]oxazin-8-yl)ethylamino)ethyl)-N-(1-phenylethyl)propanamide ditrifluoroacetate] | 50.1 | 1.0 | 0.398 |
| COc1cccc(CN(CCNCCc2ccc(O)c3c2OCC(=O)N3)C(=O)CCOCCc2cccc(CN3CCC4(CC3)CN(C(=O)c3csc(C(C)C)n3)CCO4)c2F)c1 [Example 23, 3-(2-Fluoro-3-((4-(2-Isopropylthiazole-4-carbonyl)-1-oxa-4,9-diazaspiro[5.5]undecan-9-yl)methyl)phenethoxy)-N-(2-(2-(5-hydroxy-3-oxo-3,4-dihydro-2H-benzo[b][1,4]oxazin-8-yl)ethylamino)ethyl)-N-(3-methoxybenzyl)propanamide ditrifluoroacetate] | 79.4 | 1.2 | 0.316 |
| CC(C)c1nc(C(=O)N2CCOC3(CCN(Cc4cccc(OCCOCCC(=O)N(CCNCCc5ccc(O)c6c5OCC(=O)N6)C5CCCCC5)c4)CC3)C2)cs1 [Example 59, N-Cyclohexyl-N-(2-(2-(5-hydroxy-3-oxo-3,4-dihydro-2H-benzo[b][1,4]oxazin-8-yl)ethylamino)ethyl)-3-(2-(3-((4-(2-isopropylthiazole-4-carbonyl)-1-oxa-4,9-diazaspiro[5.5]undecan-9-yl)methyl)phenoxy)ethoxy)propanamide ditrifluoroacetate] | 631 | 0.9 | 0.251 |
| CCCCN(CCNCCc1ccc(O)c2c1OCC(=O)N2)C(=O)CCOCCc1cccc(CCN2CCC3(CC2)CN(C(=O)c2csc(C(C)C)n2)CCO3)c1 [Example 34, N-Butyl-N-(2-(2-(5-hydroxy-3-oxo-3,4-dihydro-2H-benzo[b][1,4]oxazin-8-yl)ethylamino)ethyl)-3-(3-(2-(4-(2-isopropylthiazole-4-carbonyl)-1-oxa-4,9-diazaspiro[5.5]undecan-9-yl)ethyl)phenethoxy)propanamide ditrifluoroacetate] | 10 | 1.0 | 1 |
| CCc1nc(C(=O)N2CCOC3(CCN(Cc4cccc(CCOCCC(=O)N(CC)CCNCCc5ccc(O)c6[nH]c(=O)sc56)c4Cl)CC3)C2)cs1 [Example 26, 3-(2-Chloro-3-((4-(2-ethylthiazole-4-carbonyl)-1-oxa-4,9-diazaspiro[5.5]undecan-9-yl)methyl)phenethoxy)-N-ethyl-N-(2-(2-(4-hydroxy-2-oxo-2,3-dihydrobenzo[d]thiazol-7-yl)ethylamino)ethyl)propanamide ditrifluoroacetate] | 7.94 | 0.8 | 0.631 |
| CCC(CC)c1nc(C(=O)N2CCOC3(CCN(Cc4cccc(CCOCCC(=O)N(CC)CCNCCc5ccc(O)c6c5OCC(=O)N6)c4F)CC3)C2)cs1 [Example 9, N-Ethyl-3-(2-fluoro-3-((4-(2-(pentan-3-yl)thiazole-4-carbonyl)-1-oxa-4,9-diazaspiro[5.5]undecan-9-yl)methyl)phenethoxy)-N-(2-(2-(5-hydroxy-3-oxo-3,4-dihydro-2H-benzo[b][1,4]oxazin-8-yl)ethylamino)ethyl)propanamide ditrifluoroacetate] | 31.6 | 0.8 | 0.501 |
| CC(C)c1nc(C(=O)N2CCOC3(CCN(Cc4cccc(CCOCCC(=O)N(CCNCCc5ccc(O)c6[nH]c(=O)sc56)C5CCOCC5)c4F)CC3)C2)cs1 [Example 11, 3-(2-Fluoro-3-((4-(2-isopropylthiazole-4-carbonyl)-1-oxa-4,9-diazaspiro[5.5]undecan-9-yl)methyl)phenethoxy)-N-(2-(2-(4-hydroxy-2-oxo-2,3-dihydrobenzo[d]thiazol-7-yl)ethylamino)ethyl)-N-(tetrahydro-2H-pyran-4-yl)propanamide ditrifluoroacetate] | 79.4 | 1.1 | 0.316 |

Further lines, results first:

| EC50 (Adrenergic β2) [nM] | β2 Intrinsic Activity (Adrenergic β2) | IC50 [1] [nM] | Structure (SMILES) |
| --- | --- | --- | --- |
| 200 | 0.9 | 0.2 | CCN(CCNCCc1ccc(O)c2[nH]c(=O)sc12)C(=O)CCOCCc1csc(CN2CCC3(CC2)CN(C(=O)c2csc(C(C)C)n2)CCO3)c1 [Example 48, N-Ethyl-N-(2-(2-(4-hydroxy-2-oxo-2,3-dihydrobenzo[d]thiazol-7-yl)ethylamino)ethyl)-3-(2-(5-((4-(2-isopropylthiazole-4-carbonyl)-1-oxa-4,9-diazaspiro[5.5]undecan-9-yl)methyl)thiophen-3-yl)ethoxy)propanamide ditrifluoroacetate] |
| 50.1 | 0.7 | 0.2 | CC(C)c1nc(C(=O)N2CCOC3(CCN(Cc4cccc(OCCCOCCC(=O)N(CCNCCc5ccc(O)c6c5OCC(=O)N6)C5CCCCC5)c4)CC3)C2)cs1 [Example 60, N-Cyclohexyl-N-(2-(2-(5-hydroxy-3-oxo-3,4-dihydro-2H-benzo[b][1,4]oxazin-8-yl)ethylamino)ethyl)-3-(3-(3-((4-(2-isopropylthiazole-4-carbonyl)-1-oxa-4,9-diazaspiro[5.5]undecan-9-yl)methyl)phenoxy)propoxy)propanamide ditrifluoroacetate] |
| 126 | 1.0 | 0.126 | CC(C)c1nc(C(=O)N2CCOC3(CCN(Cc4cccc(CCOCCC(=O)N(CCNCCc5ccc(O)c6c5OCC(=O)N6)CC(F)(F)F)c4F)CC3)C2)cs1 [Example 79, ditrifluoroacetate] |
| 50.1 | 1.0 | 0.251 | COCCCN(CCNCCc1ccc(O)c2c1OCC(=O)N2)C(=O)CCOCCc1cccc(CN2CCC3(CC2)CN(C(=O)c2csc(C(C)C)n2)CCO3)c1Cl [Example 71, 3-(2-Chloro-3-((4-(2-isopropylthiazole-4-carbonyl)-1-oxa-4,9-diazaspiro[5.5]undecan-9-yl)methyl)phenethoxy)-N-(2-(2-(5-hydroxy-3-oxo-3,4-dihydro-2H-benzo[b][1,4]oxazin-8-yl)ethylamino)ethyl)-N-(3-methoxypropyl)propanamide ditrifluoroacetate] |
| 31.6 | 0.9 | 0.126 | CC(C)c1nc(C(=O)N2CCOC3(CCN(Cc4cccc(CCOCCC(=O)N(CCF)CCNCCc5ccc(O)c6c5OCC(=O)N6)c4F)CC3)C2)cs1 [Example 72, 3-(2-Fluoro-3-((4-(2-isopropylthiazole-4-carbonyl)-1-oxa-4,9-diazaspiro[5.5]undecan-9-yl)methyl)phenethoxy)-N-(2-fluoroethyl)-N-(2-(2-(5-hydroxy-3-oxo-3,4-dihydro-2H-benzo[b][1,4]oxazin-8-yl)ethylamino)ethyl)propanamide ditrifluoroacetate] |
| 100 | 0.6 | 0.126 | CC(C)c1nc(C(=O)N2CCOC3(CCN(Cc4cccc(SCCOCCC(=O)N(C)CCNCCc5ccc(O)c6[nH]c(=O)sc56)c4)CC3)C2)cs1 [Example 55, N-(2-(2-(4-Hydroxy-2-oxo-2,3-dihydrobenzo[d]thiazol-7-yl)ethylamino)ethyl)-3-(2-(3-((4-(2-isopropylthiazole-4-carbonyl)-1-oxa-4,9-diazaspiro[5.5]undecan-9-yl)methyl)phenylthio)ethoxy)-N-methylpropanamide ditrifluoroacetate] |
